target: USP30 (Homo sapiens (Human), UniProt Q70CQ3); test: USP30 Biochemical IC50 Assay; details: fluorescence polarisation, TAMRA labelled peptide linked to ubiquitin; 30 min pre-incubation, read after 2 h; read-out: IC50 range
Procedure, shortened: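 Fluorescence polarisation cleavage assay, duplicate wells: substrate is a TAMRA peptide joined to ubiquitin by an iso-peptide bond (50 nM), added after 30 min room-temperature compound–enzyme incubation. Readings at 540/590 nm immediately and at 2 h.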

Sequence of USP30 (Q70CQ3 57-517): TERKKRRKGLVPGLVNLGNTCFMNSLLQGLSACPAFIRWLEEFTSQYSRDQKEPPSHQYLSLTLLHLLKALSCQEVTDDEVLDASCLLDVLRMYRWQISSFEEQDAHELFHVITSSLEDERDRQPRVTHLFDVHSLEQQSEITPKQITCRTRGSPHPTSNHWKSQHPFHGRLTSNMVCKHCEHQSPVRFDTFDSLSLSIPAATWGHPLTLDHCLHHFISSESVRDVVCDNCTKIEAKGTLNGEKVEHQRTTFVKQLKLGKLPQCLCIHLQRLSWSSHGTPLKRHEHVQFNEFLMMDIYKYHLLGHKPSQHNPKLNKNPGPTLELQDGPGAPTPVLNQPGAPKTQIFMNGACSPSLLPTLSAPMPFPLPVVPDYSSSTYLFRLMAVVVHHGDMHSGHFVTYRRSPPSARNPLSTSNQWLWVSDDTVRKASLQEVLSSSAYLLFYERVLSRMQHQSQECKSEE

`CN(C)C(=O)c1cccc(-c2cc(C3CCN(C#N)C3)[nH]n2)c1` (stereo not shown) [Example 8, 3-(5-(1-Cyanopyrrolidin-3-yl)-1H-pyrazol-3-yl)-N,N-dimethylbenzamide] and `N#CN1CCC(c2cc(NC(=O)c3ccccc3)n[nH]2)C1` (stereo not shown) [Example 50, N-(3-(1-Cyanopyrrolidin-3-yl)-1H-pyrazol-5-yl)benzamide] fall in the same range of IC50: 100 to 1000 nM for the first, 100 to 1000 nM for the second.

`CC[C@@H]1CN(C#N)C[C@H]1c1cc(-c2cccc(-c3ccccc3)c2)n[nH]1` (relative stereo) [Example 43, trans-3-(3-([1,1′-biphenyl]-3-yl)-1H-pyrazol-5-yl)-4-ethylpyrrolidine-1-carbonitrile] and `C[C@@H]1CN(C#N)C[C@H]1c1cc(-c2cccc(-c3ccccc3)c2)n[nH]1` (relative stereo) [Example 19, Trans-3-(3-([1,1′-biphenyl]-3-yl)-1H-pyrazol-5-yl)-4-methylpyrrolidine-1-carbonitrile] fall in the same range of IC50: 100 to 1000 nM for the first, 100 to 1000 nM for the second.

Compared with `N#Cc1cc(-c2cccc(-c3nc([C@@H]4CCCN4C#N)no3)n2)ccn1` [Example 183, (S)-6-(3-(1-Cyanopyrrolidin-2-yl)-1,2,4-oxadiazol-5-yl)-[2,4′-bipyridine]-2 carbonitrile], `N#Cc1cccc(-c2cc(-c3nc(C4CCCN4C#N)no3)ccn2)n1` (stereo not shown) [Example 180, 4′-(3-(1-Cyanopyrrolidin-2-yl)-1,2,4-oxadiazol-5-yl)-[2,2′-bipyridine]-6-carbonitrile] is higher in IC50: under 100 nM for the first, 100 to 1000 nM for the second. The first is the more potent here.

Compared with `N#CN1CCC(c2n[nH]c(-c3cc(-c4ccccc4)ccn3)n2)C1` (stereo not shown) [Example 109, 3-(5-(4-Phenylpyridin-2-yl)-4H-1,2,4-triazol-3-yl)pyrrolidine-1-carbonitrile], `N#CN1CCC(c2nc3nccc(-c4ccccc4)c3[nH]2)C1` (stereo not shown) [Example 98, 3-(7-Phenyl-3H-imidazo[4,5-b]pyridin-2-yl)pyrrolidine-1-carbonitrile] is higher in IC50: 100 to 1000 nM for the first, 1000 to 10000 nM for the second.

`N#Cc1ccc(-c2nccc(-c3nc([C@@H]4CCCN4C#N)no3)n2)cn1` [Example 201, (S)-5-(4-(3-(1-Cyanopyrrolidin-2-yl)-1,2,4-oxadiazol-5-yl)pyrimidin-2-yl)picolinonitrile] and `N#Cc1ccc(-c2nccc(-c3nc([C@@H]4CCCN4C#N)no3)n2)cc1` [Example 185, (S)-2-(5-(2-(4-Cyanophenyl)pyrimidin-4-yl)-1,2,4-oxadiazol-3-yl)pyrrolidine-1-carbonitrile] fall in the same range of IC50: 100 to 1000 nM for the first, 100 to 1000 nM for the second.

`N#Cc1ccc(-c2ccnc(-c3nc([C@@H]4CCCN4C#N)no3)c2)cc1` [Example 176, (S)-2-(5-(4-(4-Cyanophenyl)pyridin-2-yl)-1,2,4-oxadiazol-3-yl)pyrrolidine-1-carbonitrile] and `N#Cc1ccc(-c2cc(-c3nc([C@@H]4CCCN4C#N)no3)ccn2)cc1` [Example 177, (S)-2-(5-(2-(4-Cyanophenyl)pyridin-4-yl)-1,2,4-oxadiazol-3-yl)pyrrolidine-1-carbonitrile] fall in the same range of IC50: 100 to 1000 nM for the first, 100 to 1000 nM for the second.

First: N#CN1CCCC1c1noc(-c2ccnc(-c3ccccc3)c2)n1 (stereo not shown) [Example 167]
Second: CNC(=O)c1cccc(-c2cc(-c3nc(C4CCCN4C#N)no3)ccn2)c1 (stereo not shown) [Example 171, 3-(4-(3-(1-Cyanopyrrolidin-2-yl)-1,2,4-oxadiazol-5-yl)pyridin-2-yl)-N-methylbenzamide]
The IC50 of the first is lower: 100 to 1000 nM for the first, 1000 to 10000 nM for the second. The first is the more potent here.

First: CC1CC(c2cc(-c3cccc(-c4ccccc4)c3)n[nH]2)CN1C#N (stereo not shown) [Example 27, 4-(3-([1,1′-Biphenyl]-3-yl)-1H-pyrazol-5-yl)-2-methylpyrrolidine-1-carbonitrile]
Second: C[C@@H]1CN(C#N)C[C@H]1c1cc(-c2cccc(-c3ccccc3)c2)nn1C [Example 24]
The IC50 of the first is higher: 1000 to 10000 nM for the first, 100 to 1000 nM for the second.

`N#CN1CCC(c2nc3ccc(-c4ccccc4OCc4ccccc4)cc3[nH]2)C1` (stereo not shown) [Example 73, 3-(6-(2-(Benzyloxy)phenyl)-1H-benzo[d]imidazol-2-yl)pyrrolidine-1-carbonitrile] and `CC(C)Oc1ccc(-c2ccc3nc(C4CCN(C#N)C4)[nH]c3c2)cn1` (stereo not shown) [Example 77, 3-(6-(6-Isopropoxypyridin-3-yl)-1H-benzo[d]imidazol-2-yl)pyrrolidine-1-carbonitrile] fall in the same range of IC50: 100 to 1000 nM for the first, 100 to 1000 nM for the second.

First: N#Cc1cc(F)cc(-c2cccc(-c3nc(C4CCCN4C#N)no3)c2)c1 (stereo not shown) [Example 163, 2-(5-(3′-Cyano-5′-fluoro-[1,1′-biphenyl]-3-yl)-1,2,4-oxadiazol-3-yl)pyrrolidine-1-carbonitrile]
Second: N#Cc1cnn(-c2cccc(-c3nc([C@@H]4CCCN4C#N)no3)c2)c1 [Example 190, (S)-1-(3-(3-(1-Cyanopyrrolidin-2-yl)-1,2,4-oxadiazol-5-yl)phenyl)-1H-pyrazole-4-carbonitrile]
The IC50 of the first is lower: under 100 nM for the first, 100 to 1000 nM for the second.

`N#Cc1ccc(-c2cnc3[nH]c(C4CCN(C#N)C4)nc3c2)cc1` (single isomer, unassigned) [Example 90, 3-(6-(4-Cyanophenyl)-3H-imidazo[4,5-b]pyridin-2-yl)pyrrolidine-1-carbonitrile] and `N#Cc1cccc(-c2cnc3[nH]c(C4CCN(C#N)C4)nc3c2)c1` (stereo not shown) [Example 85, 3-(6-(3-Cyanophenyl)-3H-imidazo[4,5-b]pyridin-2-yl)pyrrolidine-1-carbonitrile] fall in the same range of IC50: 100 to 1000 nM for the first, 100 to 1000 nM for the second.

`N#CN1CCCC1c1noc(-c2cccc(-c3ccc(C(N)=O)cc3)c2)n1` (stereo not shown) [Example 149, 3′-(3-(1-Cyanopyrrolidin-2-yl)-1,2,4-oxadiazol-5-yl)-[1,1′-biphenyl]-4-carboxamide] and `Cn1nccc1-c1cccc(-c2nc(C3CCCN3C#N)no2)c1` (stereo not shown) [Example 143, 2-(5-(3-(1-Methyl-1H-pyrazol-5-yl)phenyl)-1,2,4-oxadiazol-3-yl)pyrrolidine-1-carbonitrile] fall in the same range of IC50: 1000 to 10000 nM for the first, 1000 to 10000 nM for the second.

`N#Cc1cc(-c2cc(-c3nc([C@@H]4CCCN4C#N)no3)cnn2)ccn1` [Example 204, (S)-4-(5-(3-(1-Cyanopyrrolidin-2-yl)-1,2,4-oxadiazol-5-yl)pyridazin-3-yl)picolinonitrile] and `N#Cc1cc(-c2ccnc(-c3nc([C@@H]4CCCN4C#N)no3)c2)ccn1` [Example 182, (S)-2′-(3-(1-Cyanopyrrolidin-2-yl)-1,2,4-oxadiazol-5-yl)-[4,4′-bipyridine]-2-carbonitrile] fall in the same range of IC50: 100 to 1000 nM for the first, 100 to 1000 nM for the second.

`N#CN1CCC(c2noc(-c3cc(-c4ccccc4)nc4ccccc34)n2)C1` (stereo not shown) [Example 53, 3-(5-(2-Phenylquinolin-4-yl)-1,2,4-oxadiazol-3-yl)pyrrolidine-1-carbonitrile] and `N#CN1CCC[C@H]1c1nc(-c2cccc(-c3ccccc3)c2)no1` [Example 141, (S)-2-(3-([1,1′-Biphenyl]-3-yl)-1,2,4-oxadiazol-5-yl)pyrrolidine-1-carbonitrile] fall in the same range of IC50: 100 to 1000 nM for the first, 100 to 1000 nM for the second.

First: Cc1cccc2cc(-c3cccc(-c4nc(C5CCCN5C#N)no4)c3)[nH]c12 (stereo not shown) [Example 165, 2-(5-(3-(7-Methyl-1H-indo1-2-yl)phenyl)-1,2,4-oxadiazol-3-yl)pyrrolidine-1-carbonitrile]
Second: N#Cc1ccc2ccc(-c3nc([C@@H]4CCCN4C#N)no3)cc2n1 (stereo in doubt) [Example 179, 7-(3-(1-Cyanopyrrolidin-2-yl)-1,2,4-oxadiazol-5-yl)quinoline-2-carbonitrile]
The IC50 of the first is lower: 100 to 1000 nM for the first, 1000 to 10000 nM for the second.

`CCc1cccc(-c2cc(C(=O)NC)c3nc([C@@H]4CCCN4C#N)oc3c2)c1` [Example 131, (S)-2-(1-Cyanopyrrolidin-2-yl)-6-(3-ethylphenyl)-N-methylbenzo[d]oxazole-4-carboxamide] and `CC(C)Cn1cc(-c2ccc3nc(C4CCN(C#N)C4)[nH]c3c2)cn1` (stereo not shown) [Example 78, 3-(6-(1-Isobutyl-1H-pyrazol-4-yl)-1H-benzo[d]imidazol-2-yl)pyrrolidine-1-carbonitrile] fall in the same range of IC50: 1000 to 10000 nM for the first, 1000 to 10000 nM for the second.

Compared with `N#CN1CCC(c2nc3cc(-c4ccncc4)cnc3[nH]2)C1` (single isomer, unassigned) [Example 81, 3-(6-(Pyridin-4-yl)-3H-imidazo[4,5-b]pyridin-2-yl)pyrrolidine-1-carbonitrile], `C[C@@H]1CN(C#N)C[C@H]1c1cc(-c2ccccc2)n[nH]1` (relative stereo) [Example 49, Trans-3-methyl-4-(3-phenyl-1H-pyrazol-5-yl)pyrrolidine-1-carbonitrile] is higher in IC50: 100 to 1000 nM for the first, 1000 to 10000 nM for the second. The first is the more potent here.
